{
  "source": "patent US20240108637A1",
  "about": "“EPITE[…] AND/OR A STEROID SULFATASE INHIBITOR FOR USE IN TREATING OR IMPROVING AGE RELATED COGNITIVE IMPAIRMENT” (U[…] DE OLAVIDE, priority 2020, published 2024)",
  "key": {"[1]": {"system": "NL5901 strain expressing α-synuclein in muscle cells", "assay": "Parkinson's disease model: mobility of NL5901 strain", "format": "in vivo, C. elegans", "conditions": "1 μg/ml", "source_text": "We have studied the anatomical location of sul-2 expression from an extrachromosomal array and in single-copy insertion transgenic strains. […] There is no detectable expression in the germline in any transgenic strains (FIG. 2n and FIG. 10, 11a-b). ASE neurons are responsible for the attractive response of Na+ and Cl−, among others. Defects in odour sensing affect longevity. Therefore, we tested the ability of sul-2 mutants to respond to Cl− or Na+ and found no differences compared to wild type animals (FIG. 11c-d). Furthermore, sul-2 mutation increases the longevity of daf-10(m79), a long-lived mutant defective in sensory cilia formation25 (FIG. 11e). […] Reduction of sul-2 improves aging associated diseases in C. elegans Aging is considered the main risk factor for the onset of neurodegenerative disorders like Parkinson, Huntington, or Alzheimer's diseases. These disorders are caused by the progressive decline of proteostasis, which results in protein aggregation that compromises cellular functions and finally causes cell death. Germline-deficient C. elegans delay the symptoms derived from the proteotoxicity of ectopically expressed human β-amyloid (βA). We tested if sul-2 mutations or STX64 treatment improves the symptoms of C. elegans models for neurodegenerative diseases."}, "[2]": {"system": "C. elegans", "assay": "Lifespan assays in C. elegans", "format": "in vivo, Caenorhabditis elegans", "conditions": "for life span / longevity: wild type background, FIG. 4f-g, FIG. 13c-d", "procedure": "F2 L4 animals were shifted to 25° C. (t=0). ES treatment started at L4 stage, control and treated plates were prepared fresh and animals transferred each three days until death. Animals lost or dead by non-physiological causes were censured. Survival curves were generated using the product-limit method of Kaplan and Meier. The log-rank (Mantel-Cox) test was used to evaluate differences in survival and […] lower than 0.05 were considered significant."}, "[3]": {"system": "daf-2(e1370)", "assay": "Developmental arrest (dauer / L1) at 25° C.", "format": "in vivo, C. elegans", "conditions": "daf-2(e1370) background", "procedure": "Worms were growth at 16° C. until L4, then shifted to 25° C. considering this Day 0 of adulthood. The pumping was counted under the Leica stereoscope at 100× magnification for 30 seconds. Data display from two independent biological assays (n=30 per day). Two-tailed Mann-Whitney t-test, ***p=0.0006. e Thrashing in sul-2(gk187) is similar to wild type but is slightly lower in sul-2 (pv17) at 25° C. on day 1 of adulthood. On day 6 at 25° of adulthood, the trashing on sul-2(gk187) is lower than wild type and sul-(pv17), with no differences among these last strains. The population of sul-2(gk17) at day 6 seems to distribute into two different populations, one with almost no thrashing and other with values similar to wild type a sul-2(pv17). […] In this condition, all animals from daf-2(e1370); sul-2(pv17) double mutants arrest at L1 stage. Similarly, more than 50% of animals arrest in L1 stage in daf-2(m577); sul-2(pv17) background, while none of the single mutants show this phenotype. i Example of sul-2(pv17) larvae, dauer larval arrest of daf-2(e1370) or L1 arrest of daf-2(e1370); sul-2 (pv17) and daf-2(e1370); sul-2(gk187) at 25° C. Animals were grown up to L4 at 16° C., then shifted at 25° C., progeny were scored or imaged after 72 hours. Photographs were taken in a Leica scope."}, "[4]": {"system": "GMC101 strain expressing human β-amyloid in muscle", "assay": "Alzheimer's disease model: thermodependent paralysis of GMC101 strain", "format": "in vivo, C. elegans", "conditions": "1 μg/ml", "source_text": "In this model, GFP-labelled dopaminergic neurons die due to α-synuclein toxicity. […] We also tested two different strains of Alzheimer's disease (AD) in worms, where immobility is caused by expression of βA protein in muscle cells."}, "[5]": {"system": "aged mice", "assay": "Object recognition test in aged mice", "format": "in vivo", "conditions": "aged mice, vs vehicle-treated, FIG. 21", "procedure": "(§1) The first, object recognition, after training with identical objects, tests the ability to identify different objects exposed together with a familiar one. When this happens, the object discrimination index is positive and higher than 0.1. […] For this purpose, during training, the entry latency to the preferred site is established and the aversive stimulus is administered."}, "[6]": {"system": "aged mice", "assay": "Passive avoidance test in aged mice (STM and LTM)", "format": "in vivo", "conditions": "aged mice, vs vehicle-treated, FIG. 21", "procedure": "as §1\nDuring short- and long-term memory tests (STM and LTM) if the mouse associated the preferred place to the aversive stimulus, the input latency increases with respect to training."}, "[7]": {"system": "16-month-old mice", "assay": "Open Field test", "format": "in vivo", "conditions": "FIG. 20; for habituation ability: aged animals, Open Field 15 minutes", "procedure": "(§2) The “Open Field” is a test where the mouse must explore an unknown space for 15 minutes. In this test, both mobility and habituation (cognitive parameter that measures the individual's ability to recognize the environment) can be studied. On the other hand, the “Y maze” test is a test where the mouse explores the maze for 6 minutes. This test evaluates the distance traveled as a measure of mobility and the ability to visit triplets of arms without repeating any of them as a sign of immediate memory."}, "[8]": {"system": "16-month-old mice", "assay": "Y maze test", "format": "in vivo", "conditions": "aged animals, Y maze 6 minutes, FIG. 20", "procedure": "as §2"}, "[9]": {"system": "mammalian model with intrahippocampal βA oligomers", "conditions": "local administration; previously reported; cited from earlier work"}},
  "note": "Entries after “also recorded” stand apart in the source; their conditions may differ. Counter-ions that a name gives are not always drawn.",
  "data": [
    {"molecule": "C[C@]12CC[C@H]3[C@@H](CCC4=CC(=O)CC[C@@]43C)[C@@H]1CC[C@@H]2O", "note": "[T, testosterone]", "values": [
      {"measurement": "mobility with age", "setting": "[1]", "value": "No effect is observed"},
      {"measurement": "mobility with age", "setting": "[1]; listed as testosterone", "value": "showed no effect"}
    ]},
    {"molecule": "dehidroepiandrosterone sulfate [DHEAS]", "values": [
      {"measurement": "life span / longevity", "setting": "[2]; 1 μg/ml", "value": "does not affect longevity; also recorded: do not affect"},
      {"measurement": "mobility with age", "setting": "[1]", "value": "improved the mobility"},
      {"measurement": "L1 arrest", "setting": "[3]", "value": "increase"}
    ]},
    {"molecule": "C[C@]12CC[C@H]3[C@@H](CCC4=CC(=O)CC[C@@]43C)[C@@H]1CC[C@H]2OS(=O)(=O)O", "note": "[ES, N,N-diethylethanamine;[(8R,9S,10R,13S,14S,17R)-10,13-dimethyl-3-oxo-1,2,6,7,8,9,11,12,14,15,16,17-dodecahydrocyclopenta[a]phenanthren-17-yl]hydrogen sulfate]", "values": [
      {"measurement": "lifespan", "setting": "[2]; FIG. 15, treatment from L4 stage, 25° C., fer-15(b26) background, p<0.05 Log-Rank (Mantel-Cox)", "value": "significantly increased life span"},
      {"measurement": "lifespan", "setting": "[2]; sul-2(gk187) background, 1 μg/ml, FIG. 4f", "value": "does not further increase"},
      {"measurement": "lifespan", "setting": "[2]; sul-2(pv17) background, 1 μg/ml, FIG. 13c,d", "value": "does not increase further"},
      {"measurement": "longevity", "setting": "[2]; sul-2 mutants backgrounds", "value": "did not further increase longevity"},
      {"measurement": "life span / longevity", "setting": "[2]; 1 μg/ml", "value": "increases life span; also recorded: increased in longevity; also recorded: increases lifespan"},
      {"measurement": "mobility with age", "setting": "[1]", "value": "improved the mobility; also recorded: better result"},
      {"measurement": "paralysis phenotype", "setting": "[4]; FIG. 3h, FIG. 4b", "value": "is ameliorate"},
      {"measurement": "paralysis phenotype", "setting": "[4]; normal NGM plates, FIG. 13a", "value": "is reduced"},
      {"measurement": "L1 arrest", "setting": "[3]", "value": "increase"},
      {"measurement": "learning and memory, object recognition test", "setting": "[5]", "value": "showed significantly both learning (STM) and ability to store information (memory); also recorded: significant improvement in both learning (STM) and ability to store information (memory)"},
      {"measurement": "learning and memory, object recognition test", "setting": "[5]; listed as E-S", "value": "showed significantly both learning (STM) and ability to store information (memory)"},
      {"measurement": "learning (STM) and memory (LTM), passive avoidance test", "setting": "[6]", "value": "showed significantly both learning (STM) and ability to store information (memory); also recorded: significant improvement in both learning (STM) and ability to store information (memory)"},
      {"measurement": "learning (STM) and memory (LTM), passive avoidance test", "setting": "[6]; listed as E-S", "value": "showed significantly both learning (STM) and ability to store information (memory)"},
      {"measurement": "motor ability (mobility)", "setting": "[7]; 16-month-old mice, Open Field mobility and Y maze distance traveled", "value": "tend to improve"},
      {"measurement": "habituation ability", "setting": "[7]", "value": "tend to improve"},
      {"measurement": "habituation ability", "setting": "[7]; listed as E-S", "value": "are improved"},
      {"measurement": "immediate memory", "setting": "[8]", "value": "tend to improve"},
      {"measurement": "immediate memory", "setting": "[8]; listed as E-S", "value": "are improved"}
    ]},
    {"molecule": "C[C@]12CC[C@H]3[C@@H](CCC4=CC(=O)CC[C@@]43C)[C@@H]1CC[C@@H]2OS(=O)(=O)O", "note": "[TS, [(8R,9S,10R,13S,14S,17S)-10,13-dimethyl-3-oxo-1,2,6,7,8,9,11,12,14,15,16,17-dodecahydrocyclopenta[a]phenanthren-17-yl] hydrogen sulfate]", "values": [
      {"measurement": "life span / longevity", "setting": "[2]; 1 μg/ml", "value": "does not affect longevity; also recorded: do not affect"},
      {"measurement": "mobility with age", "setting": "[1]", "value": "improved the mobility"},
      {"measurement": "paralysis phenotype", "setting": "[4]; FIG. 3h, FIG. 4b", "value": "is ameliorate"},
      {"measurement": "paralysis phenotype", "setting": "[4]; normal NGM plates, FIG. 13a", "value": "is reduced"},
      {"measurement": "L1 arrest", "setting": "[3]", "value": "increase"}
    ]},
    {"molecule": "pregnenolone sulfate [PregS]", "values": [
      {"measurement": "mobility with age", "setting": "[1]", "value": "No effect is observed"},
      {"measurement": "mobility with age", "setting": "[1]; listed as pregnenolone sulfate", "value": "showed no effect"}
    ]},
    {"molecule": "CCCCCCCCCCCCCC(=O)NCCc1ccc(OS(N)(=O)=O)cc1", "note": "[DU-14]", "values": [
      {"measurement": "memory loss", "setting": "[9]", "value": "could alleviate memory loss"}
    ]},
    {"molecule": "C[C@]12CC[C@H](O)CC1=CC[C@@H]1[C@@H]2CC[C@]2(C)C(=O)CC[C@@H]12", "note": "[DHEA]", "values": [
      {"measurement": "mobility with age", "setting": "[1]", "value": "No effect is observed; also recorded: showed no effect"}
    ]}
  ]
}
